Bounds are passed on as bounds.

The record followed here is patent publication US8921389B2, “Naphthyridine derivatives as inhibitors of hypoxia inducible factor (HIF) hydroxylase” (Fibrogen, Inc., priority 2011, dated 2014).

In this test the target is HIF-PH2 (EGLN1) (Homo sapiens (Human), UniProt Q9GZT9). The experiment in a line: HIF-PH assay (14CO2 capture, peptide-dependent turnover). Particulars: enzyme inhibition against HIF-PH2; peptide-dependent percent turnover. It is filed as biochemical. An excerpt:
Ketoglutaric acid α-[1-^14C]-sodium salt, alpha-ketoglutaric acid sodium salt, and HPLC purified peptide may be obtained from commercial sources, e.g., Perkin-Elmer (Wellesley Mass.), Sigma-Aldrich, and SynPep Corp. (Dublin Calif.), respectively. […] For example, a HIF peptide for use in the HIF-PH assay is [methoxycoumarin]-[…]-amide. HIF-PH, e.g., HIF-PH2 (EGLN1), can be expressed in, e.g., insect Hi5 cells, and partially purified, e.g., through a SP ion exchange chromatography column. […] Reactions are initiated by addition of HIF-PH enzyme.
The peptide-dependent percent turnover is calculated by subtracting percent turnover in the absence of peptide from percent turnover in the presence of substrate peptide. Percent inhibition and IC50 are calculated using peptide-dependent percent turnover at given inhibitor concentrations. Calculation of IC50 values for each inhibitor is conducted using GraFit software (Erithacus Software Ltd., Surrey UK).
Representative compounds of the disclosure were analyzed using the HIF-PH assay described above.

Sequence of HIF-PH2 (EGLN1) (Q9GZT9 whole entry): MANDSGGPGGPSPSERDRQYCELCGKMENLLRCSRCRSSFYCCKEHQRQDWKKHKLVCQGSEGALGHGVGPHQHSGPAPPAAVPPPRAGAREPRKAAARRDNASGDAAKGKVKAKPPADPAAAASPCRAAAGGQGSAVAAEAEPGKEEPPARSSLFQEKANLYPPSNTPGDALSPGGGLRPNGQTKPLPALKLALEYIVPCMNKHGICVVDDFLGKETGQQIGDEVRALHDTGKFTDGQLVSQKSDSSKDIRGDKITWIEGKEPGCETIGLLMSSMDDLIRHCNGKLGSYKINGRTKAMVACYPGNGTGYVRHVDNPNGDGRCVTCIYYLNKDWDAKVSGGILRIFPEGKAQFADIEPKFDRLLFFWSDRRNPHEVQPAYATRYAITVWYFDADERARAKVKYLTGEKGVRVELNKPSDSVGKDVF

`N#Cc1nc(C(=O)NCc2ccncc2)c(O)c2ccn(Cc3ccccc3)c(=O)c12` [Example 48, 7-Benzyl-1-cyano-4-hydroxy-8-oxo-7,8-dihydro-[2,7]naphthyridine-3-carboxylic acid (pyridin-4-ylmethyl)-amide] returned a 50% inhibitory concentration (IC50) of 195 µM.
With `CNC(=O)c1nc(C#N)c2c(cc(-c3ccccc3)c(=O)n2Cc2ccccc2)c1O` [Example 41, 1-Benzyl-8-cyano-5-hydroxy-2-oxo-3-phenyl-1,2-dihydro-[1,7]naphthyridine-6-carboxylic acid methylamide], the IC50 was greater than 200 µM.
Regarding `N#Cc1nc(C(=O)NCCCCC(=O)O)c(O)c2ccn(Cc3ccccc3)c(=O)c12` [Example 52, 5-[(7-Benzyl-1-cyano-4-hydroxy-8-oxo-7,8-dihydro-[2,7]naphthyridine-3-carbonyl)-amino]-pentanoic acid], the IC50 was greater than 200 µM.
In the case of `N#Cc1nc(C(=O)NCC2(C(=O)O)CCC2)c(O)c2ccn(Cc3ccccc3)c(=O)c12` [Example 62, 1-{[(7-Benzyl-1-cyano-4-hydroxy-8-oxo-7,8-dihydro-[2,7]naphthyridine-3-carbonyl)-amino]-methyl}-cyclobutanecarboxylic acid], the IC50 came to 182 µM.
The result for `O=C(NCc1nnn[nH]1)c1ncc2ccc(=O)n(Cc3ccccc3)c2c1O` [Example 82, 1-Benzyl-8-hydroxy-2-oxo-1,2-dihydro-[1,6]naphthyridine-7-carboxylic acid (1H-tetrazol-5-ylmethyl)-amide] reads 138 µM; that for `O=C(O)CCNC(=O)c1nc(-c2ccncc2)c2c(cc(-c3ccccc3)c(=O)n2CC2CCCCC2)c1O` [Example 198, 3-[(1-Cyclohexylmethyl-5-hydroxy-2-oxo-3-phenyl-8-pyridin-4-yl-1,2-dihydro-[1,7]naphthyridine-6-carbonyl)-amino]-propionic acid], 200 µM.
Consider `CC(=O)NCCNC(=O)c1nc(C#N)c2ccc(=O)n(Cc3ccccc3)c2c1O` [Example 95, 1-Benzyl-5-cyano-8-hydroxy-2-oxo-1,2-dihydro-[1,6]naphthyridine-7-carboxylic acid (2-acetylamino-ethyl)-amide], for which the IC50 turned out to be 134 µM.
Regarding `N#Cc1nc(C(=O)N[C@H](Cc2ccccc2)C(=O)O)c(O)c2ccn(Cc3ccccc3)c(=O)c12` [Example 51, (R)-2-[(7-Benzyl-1-cyano-4-hydroxy-8-oxo-7,8-dihydro-[2,7]naphthyridine-3-carbonyl)-amino]-3-phenyl-propionic acid], the IC50 is greater than 200 µM.
Molecule `CC(C)NC(=O)NCCNC(=O)c1ncc2c(=O)n(Cc3ccccc3)ccc2c1O` [Example 89, 7-Benzyl-4-hydroxy-8-oxo-7,8-dihydro-[2,7]naphthyridine-3-carboxylic acid [2-(3-isopropyl-ureido)-ethyl]-amide] showed an IC50 greater than 200 µM.
The result for `N#Cc1nc(C(=O)NC2CC2)c(O)c2ccn(Cc3ccccc3)c(=O)c12` [Example 39, 7-Benzyl-1-cyano-4-hydroxy-8-oxo-7,8-dihydro-[2,7]naphthyridine-3-carboxylic acid cyclopropylamide] reads greater than 200 µM; that for `Cc1ccc(-c2nc(C(=O)NCCC(=O)O)c(O)c3cc(-c4ccccc4)c(=O)n(Cc4ccccc4)c23)cn1` [Example 179, 3-{[1-Benzyl-5-hydroxy-8-(6-methyl-pyridin-3-yl)-2-oxo-3-phenyl-1,2-dihydro-[1,7]naphthyridine-6-carbonyl]-amino}-propionic acid], 176 µM.
The result for `N#Cc1nc(C(=O)NCCN2CCOCC2)c(O)c2ccn(Cc3ccccc3)c(=O)c12` [Example 59, 7-Benzyl-1-cyano-4-hydroxy-8-oxo-7,8-dihydro-[2,7]naphthyridine-3-carboxylic acid (2-morpholin-4-yl-ethyl)-amide] reads greater than 200 µM.
The molecule `COc1ccc(Cn2ccc3c(O)c(C(=O)NCCc4ccccc4)ncc3c2=O)c(OC)c1` [Example 76, 7-(2,4-Dimethoxy-benzyl)-4-hydroxy-8-oxo-7,8-dihydro-[2,7]naphthyridine-3-carboxylic acid phenethyl-amide] came in with a half-maximal inhibitory concentration (IC50) greater than 200 µM.
For `C[C@@H](c1ccccc1)n1c(=O)c(-c2ccccc2)cc2c(O)c(C(=O)NCCC(=O)O)nc(-c3cccnc3)c21` [Example 175, (S)-3-{[5-Hydroxy-2-oxo-3-phenyl-1-(1-phenyl-ethyl)-8-pyridin-3-yl-1,2-dihydro-[1,7]naphthyridine-6-carbonyl]-amino}-propionic acid], the concentration for half-maximal inhibition (IC50) stood at 200 µM.
Turning to `CC(C)(CNC(=O)c1nc(C#N)c2c(=O)n(Cc3ccccc3)ccc2c1O)C(=O)O` [Example 50, 3-[(7-Benzyl-1-cyano-4-hydroxy-8-oxo-7,8-dihydro-[2,7]naphthyridine-3-carbonyl)-amino]-2,2-dimethyl-propionic acid], the half-inhibitory concentration (IC50) is greater than 200 µM.
With `CC(C)(CNC(=O)c1nc(-c2cncc(F)c2)c2c(=O)n(Cc3ccccc3)ccc2c1O)C(=O)O` [Example 88, 3-{[7-Benzyl-1-(5-fluoro-pyridin-3-yl)-4-hydroxy-8-oxo-7,8-dihydro-[2,7]naphthyridine-3-carbonyl]-amino}-2,2-dimethyl-propionic acid], the IC50 was greater than 200 µM.
